For one test, the target named is T1, MMP-2 (Mus musculus, UniProt P33434).
T1 construct: Tissue extracts were electrophoresed in SDS-PAGE containing gelatin under nonreducing conditions; from tissue; host or cells: mouse stomach (gastric tissue) PBS / Triton X-100 extracts
Kind of test: Gelatin zymography of gastric tissue extract, MMP-2. Type of test: in vivo, mice. The note with it: pretreatment before indomethacin. How it is done:
The whole stomach (including fundic, body and pyloric parts) was washed with saline and used for extraction. Stomach except connective tissue layer (named as gastric tissue) were suspended in 10 mM phosphate buffer saline (PBS) containing protease inhibitors, minced and incubated for 10 min at 4° C. After centrifugation at 12,000 g for 15 min, the supernatant was collected as PBS extracts. The pellet was then extracted in lysis buffer (10 mM Tris-HCl pH 8.0, 150 mM NaCl, 1% Triton X-100 and protease inhibitors) and centrifuged at 12,000 g for 15 min to obtain TX extracts. Both PBS and TX extracts were preserved at −70° C. and used in future studies. Proteins were estimated either by Lowry method or by Bradford assay.
For the analysis of MMP-9 activity, tissue extracts were electrophoresed in 8% SDS-PAGE containing 1 mg/mL gelatin under nonreducing conditions. Equal amounts of tissue extracts (70 μg of total protein) were loaded in all the lanes. […] Quantification of zymographic bands was performed using densitometry linked to proper software (Lab Image, Kapelan Gmbh, Leipzig, Germany). […]
Tissue extracts were electrophoresed in SDS-PAGE containing gelatin under nonreducing conditions. […] Gelatinolytic activity came as negative staining and was quantified by Lab Image software.

A further test relates to protein carbonyl. Kind of test: Measurement of protein carbonyl in gastric tissue homogenate. Format: in vivo. To be noted: 50 mg/kg bw, ulcerated mice. How it is done: Protein carbonyl groups are considered as biomarkers of oxidative stress. Protein oxidation was measured as carbonyl content in the low speed supernatant of the gastric tissue homogenate. The stomach from control, stress ulcerated, and compound 5 treated (50 mg/kg bw) mice were homogenized in 50 mM sodium phosphate buffer pH 7.4 in a Potter-Elvehjem glass homogenizer for 2 min to get 20% homogenate. After centrifugation at 600 g for 10 min, the proteins from 1.0 mL of the supernatant were precipitated with 10% trichloroacetic acid and allowed to react with 0.5 mL of 10 mM 2,4-dinitrophenyl hydrazine for 1 h. After precipitation with 20% trichloroacetic acid, proteins were washed thrice with a mixture of ethanol-ethyl acetate (1:1), dissolved in 1.0 mL of a solution containing 6 M guanidine HCl in 20 mM potassium phosphate adjusted to pH 2.3 with trifluroacetic acid, and centrifuged. The absorbance of the supernatant was read at 362 nm for carbonyl content (E=22,000/M/cm).
The fundic stomach homogenate was used for measurement of protein carbonyl formation as nmol/mg protein.

We go through one molecule from patent US10590116B2, “3-indolyl furanoids as inhibitors of matrix metalloproteinase-9 for prevention of gastric ulcer and other inflammatory diseases” (Council of Scientific & Industrial Research, priority 2017, dated 2020).

T1 sequence (P33434 110-662): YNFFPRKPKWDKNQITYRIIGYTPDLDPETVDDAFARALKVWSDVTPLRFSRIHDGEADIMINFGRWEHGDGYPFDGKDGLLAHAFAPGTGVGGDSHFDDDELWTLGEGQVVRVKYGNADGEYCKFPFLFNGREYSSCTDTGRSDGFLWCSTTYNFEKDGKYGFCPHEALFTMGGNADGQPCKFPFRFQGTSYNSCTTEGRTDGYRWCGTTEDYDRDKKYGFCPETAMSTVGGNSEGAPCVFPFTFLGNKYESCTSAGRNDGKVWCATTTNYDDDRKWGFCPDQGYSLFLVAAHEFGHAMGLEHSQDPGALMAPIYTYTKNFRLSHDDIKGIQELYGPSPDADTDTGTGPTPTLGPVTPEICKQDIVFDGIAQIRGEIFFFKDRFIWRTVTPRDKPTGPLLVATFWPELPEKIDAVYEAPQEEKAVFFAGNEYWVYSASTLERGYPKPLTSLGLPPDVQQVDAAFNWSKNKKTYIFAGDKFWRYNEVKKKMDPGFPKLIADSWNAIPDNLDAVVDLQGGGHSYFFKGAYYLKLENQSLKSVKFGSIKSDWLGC

Take `COc1cccc2[nH]cc(-c3cc(-c4ccccc4)oc3-c3ccccc3)c12` [compound 5, 4-methoxy-3-(2,5-diphenylfuran-3-yl)-1H-indole]: the “MMP-2 activity in gastric tissue extract” value at MMP-2 is “remained unaltered”. Besides, the values for the Protein carbonylation in the test with protein carbonyl and in the test with protein carbonyl (listed as Compound 5) were 1.58±0.18 nmol/mg protein and 1.58 ± 0.18 nmol/mg protein, respectively.
